Source: patent publication US20160333071A1 (THE TRUSTEES OF COLUMBIA UNIVERSITY IN THE CITY OF NEW YORK, priority 2014, published 2016)

Tested on: endocardial tissue slabs (incorporating the construct injection site)
Design: species or system dog

| SMILES | effect on rate of isoproterenol-enhanced rhythms |
| --- | --- |
| NC1=N[C@H](O)[C@H]2[C@H]3O[C@]4(O)O[C@@H]([C@@H](O)[C@@]2(N1)[C@@H]4O)[C@]3(O)CO [Tetrodotoxin, tetrodotoxin] | reductions in rate |
| COc1cc2c(cc1OC)CC(=O)N(CCCN(C)C[C@H]1Cc3cc(OC)c(OC)cc31)CC2 [ivabradine] | reductions in rate |
